Measurements reported in US20260374792A1, “PHENYL-FREE BISCATIONIC QUATERNARY PHOSPHONIUM COMPOUNDS AS ANTIMICROBIAL AGENTS” (priority 2022, published 2026).
Where two headings read alike, the source gives them in different places.

Assays:
P. aeruginosa (PAO1) = assay: MIC against P. aeruginosa; format: cell-based; conditions: Pseudomonas aeruginosa
Protocol: (§1) The term “minimum inhibitory concentration (MIC)” means the lowest concentration of an antimicrobial agent that will inhibit the visible growth of a microorganism after overnight incubation. MIC values against bacteria, for example, the Gram-positive Staphylococcus aureus and Enterococcus faecalis and the Gram-negative Escherichia coli and Pseudomonas aeruginosa were determined by standard methods. See also P. A. Wayne, Methods for Dilution Antimicrobial Tests for Bacteria that Grow Aerobically; Approved Standard, Ninth Edition, 2012, CLSI Document M07-A9, Vol. 32 No. 2.
(§2) Biological testing procedures were adapted from prior work by Melander and coworkers. For all biological assays, laboratory strains of methicillin-susceptible Staphylococcus aureus MSSA (SH1000), Staphylococcus aureus CA-MRSA (USA300-0114), Staphylococcus aureus HA-MRSA (ATCC 33591), Escherichia coli (MC4100), Enterococcus faecalis (OG1RF), Acinetobacter baumannii (ATCC 17978), were grown with shaking at 37 °C overnight from freezer stocks in 5 mL of the indicated media: SH1000, OG1RF, MC4100, USA300-0114, and ATCC 17978 were grown in BDTM Mueller-Hinton broth (MHB), whereas ATCC 33591 was grown in BDTM tryptic soy broth (TSB). The inoculum were then streaked onto Mueller-Hinton agar (MHA) plates and grown overnight at 37 °C. From the plates, single colonies were selected, diluted into 50 mL of fresh media and grown overnight at 37 °C with shaking for use in the MIC assays. Optical density (OD) measurements were obtained using a SpectraMax iD3 plate reader (Molecular Devices, United States).
(§3) Compounds were serially diluted two-fold from stock solutions (1.0 mM) to yield twelve 100 μL test concentrations, wherein the starting concentration of dimethyl sulfoxide (DMSO) was 2.5%. Overnight S. aureus, E. faecalis, E. coli, A. baumannii, USA300-0114 (CA-MRSA), and ATCC 33591 (HA-MRSA) cultures were diluted to ca. 10^6 CFU/mL in MHB or TSB and regrown to mid-exponential phase, as determined by optical density recorded at 600 nm (OD600). All cultures were then diluted again to ca. 10^6 CFU/mL and 100 μL were inoculated into each well of a U-bottom 96-well plate (Corning, 351177) containing 100 μL of compound solution. Plates were incubated statically at 37 °C for 72 hours upon which wells were evaluated visually for bacterial growth. The MIC was determined as the lowest concentration of compound resulting in no bacterial growth visible to the naked eye, based on the highest value in three independent experiments. Aqueous DMSO controls were conducted as appropriate for each compound.
(§4) The prepared library of biscationic amphiphilic compounds was assessed for performance as antibacterial disinfectants by determining the minimum inhibitory concentration (MIC) for each against a panel of bacteria. The bacteria selected for the study were chosen to evaluate the broad spectrum antimicrobial performance of the QPCs, and therefore, included both Gram-positive and Gram-negative bacterial strains, including those with known antimicrobial resistance mechanisms. These bacteria include the Gram-positive strains of methicillin-susceptible Staphylococcus aureus [MSSA; SH1000], community-acquired methicillin-resistant Staphylococcus aureus [CA-MRSA; USA 300-0114], hospital-acquired methicillin-resistant Staphylococcus aureus [HA-MRSA; ATCC 33591] and the […], Escherichia coli [MC4100], Acinetobacter baumannii [ATCC 17498] and Pseudomonas aeruginosa [PAO1].

A. baumannii = assay: MIC against A. baumannii; format: cell-based; conditions: Acinetobacter baumannii, 72 h
Protocol: as §1, §2, §3, §4

E. faecalis (OG1RF) = assay: MIC against E. faecalis; format: cell-based; conditions: Enterococcus faecalis, 72 h
Protocol: as §1, §2, §3, §4

CA-MRSA (USA300-0114) = assay: MIC against community-acquired methicillin-resistant S. aureus (CA-MRSA); format: cell-based; conditions: Staphylococcus aureus, 72 h
Protocol: as §1, §2, §3, §4

red blood cells = assay: Red Blood Cell (RBC) Lysis Assay (lysis20); format: cell-based, sheep; conditions: concentration inducing 20% RBC lysis; sheep blood, 1 hour, 37 °C
Protocol: RBC lysis assays were performed on mechanically defibrinated sheep blood (Hemostat Labs: DSB030). An aliquot of 1.5 mL blood was placed into a microcentrifuge tube and centrifuged at 3,800 rpm for ten minutes. The supernatant was removed, and the cells were resuspended with 1 mL of phosphate-buffered saline (PBS). The suspension was centrifuged as described above, the supernatant was removed, and cells were resuspended 4 additional times in 1 mL PBS. The final cell suspension was diluted twentyfold with PBS. Compounds were serially diluted with PBS two-fold from stock solutions (1.0 mM) to yield 100 μL of twelve test concentrations on a flat-bottom 96-well plate (Corning, 351172), wherein the starting concentration of DMSO was 2.5%. To each of the wells, 100 μL of the twentyfold suspension dilution was then inoculated. TritonX (1% by volume) served as a positive control (100% lysis marker) and sterile PBS served as a negative control (0% lysis marker). Samples were then placed in an incubator at 37 °C and shaken at 200 rpm. After 1 hour, the samples were centrifuged at 3,800 rpm for ten minutes. The absorbance of the supernatant was measured with a UV spectrometer at a 540 nm wavelength. The concentration inducing 20% RBC lysis was then calculated for each compound based upon the absorbances of the TritonX and PBS controls. Aqueous DMSO controls were conducted as appropriate for each compound.
The potential cytotoxicity of the compounds was also considered with the evaluation of hemolysis (lysis20) assays with 20% lysis of red blood cells serving as an indicator of potentially toxic compounds. Finally, the bioactivity of these compounds were benchmarked against a commercial benzalkonium chloride source (BAC; 70% benzyldimethyldodecylammonium chloride, and 30% benzyldimethyltetradecylammonium chloride) as well as some previously reported disinfectant compounds from the inventors' groups; included were bisQPC ^PhP6P-10,10 as well as ^PhP2P-10,10 and 12(2)12. A detailed description of the experimental procedures used to evaluate bioactivity and hemolysis assays are described above.

E. coli (MC4100) = assay: MIC against E. coli; format: cell-based; conditions: Escherichia coli, 72 hours, 37 °C
Protocol: as §1, §2, §3, §4

HA-MRSA (ATCC 33591) = assay: MIC against hospital-acquired methicillin-resistant S. aureus (HA-MRSA); format: cell-based; conditions: Staphylococcus aureus, 72 h
Protocol: as §1, §2, §3, §4

MSSA (SH1000) = assay: MIC against methicillin-susceptible S. aureus (MSSA); format: cell-based; conditions: Staphylococcus aureus
Protocol: as §1, §2, §3, §4

[1] = P. aeruginosa (PAO1), 72 hours, 37 °C, read-out: MIC
[2] = MSSA (SH1000), 72 hours, 37 °C, read-out: MIC

SMILES	MIC (P. aeruginosa (PAO1); [1]) [µM]	MIC (A. baumannii) [µM]	MIC (E. faecalis (OG1RF)) [µM]	MIC (CA-MRSA (USA300-0114)) [µM]	Lysis20 (red blood cells) [µM]	MIC (E. coli (MC4100)) [µM]	MIC (HA-MRSA (ATCC 33591)) [µM]	MIC (MSSA (SH1000); [2]) [µM]	MIC (P. aeruginosa (PAO1); PAO1, 72 h) [µM]	MIC (MSSA (SH1000); MSSA, 72 h) [µM]
CCCCCCCCCCCC[P+](CC[P+](CCCCCCCCCCCC)(C1CCCCC1)C1CCCCC1)(C1CCCCC1)C1CCCCC1 [^CyP2P-12,12]	16	4	16	2	16	8	2	2	–	–
CCCCCCCC[P+](CC[P+](CCCCCCCC)(C1CCCCC1)C1CCCCC1)(C1CCCCC1)C1CCCCC1 [^CyP2P-8,8]	250	125	63	2	125	63	8	2	–	–
CCCCCCCC[P+](C)(C)CC[P+](C)(C)CCCCCCCC [^MeP2P-8,8]	> 250	> 250	> 250	125	250	> 250	250	125	–	–
CCCCCCCCCC[P+](CC)(CC)CC[P+](CC)(CC)CCCCCCCCCC [^EtP2P-10,10]	32	32	16	1	63	16	8	2	–	–
CCCCCCCCCC[P+](C)(C)CC[P+](C)(C)CCCCCCCCCC [^MeP2P-10,10]	32	63	16	2	63	16	2	2	–	–
CCCCCCCCCCCCCC[P+](C)(C)CC[P+](C)(C)CCCCCCCCCCC [^MeP2P-14,14]	63	125	32	4	8	32	8	8	–	–
CCCCCCCCCCCCC[P+](CC[P+](CCCCCCCCCCCCC)(C1CCCCC1)C1CCCCC1)(C1CCCCC1)C1CCCCC1 [^CyP2P-13,13]	63	16	32	2	8	32	1	2	–	–
CCCCCCCCC[P+](C)(C)CC[P+](C)(C)CCCCCCCCC [^MeP2P-9,9]	> 250	250	125	8	250	125	16	8	–	–
CCCCCCCCCC[P+](CC[P+](CCCCCCCCCC)(C1CCCCC1)C1CCCCC1)(C1CCCCC1)C1CCCCC1 [^CyP2P-10,10]	8	8	8	1	16	8	1	1	–	–
CCCCCCCCCC[P+](CC[P+](CCCCCCCCCC)(c1ccccc1)c1ccccc1)(c1ccccc1)c1ccccc1 [^PhP2P-10,10, reference compound]	8	2	8	0.5	16	4	1	1	–	–
CCCCCCCCCCCCCCCC[P+](CC[P+](CCCCCCCCCCCCCCCC)(C1CCCCC1)C1CCCCC1)(C1CCCCC1)C1CCCCC1 [^CyP2P-16,16]	63	125	125	2	32	125	2	8	–	–
CCCCCCCCCCCCCCCC[P+](CC)(CC)CC[P+](CC)(CC)CCCCCCCCCCCCCCCC [^EtP2P-16,16]	–	260	63	16	16	125	32	–	125	16
CCCCCCCC[P+](CC)(CC)CC[P+](CC)(CC)CCCCCCCC [^EtP2P-8,8]	> 250	> 250	> 250	125	250	> 250	250	63	–	–
CCCCCCCCCCC[P+](CC)(CC)CC[P+](CC)(CC)CCCCCCCCCCC [^EtP2P-11,11]	16	8	4	1	16	4	2	1	–	–
